Results on 15 molecules are retold here after patent US20240034729A9, “HETEROCYCLIC COMPOUND, INTERMEDIATE, PREPARATION METHOD THEREFOR AND APPLICATION THEREOF” (WUHAN LL SCIENCE AND TECHNOLOGY DEVELOPMENT CO., LTD., priority 2018, published 2024).

The nature of data set [1]: In vitro metabolic stability, human liver microsome. Format: in vitro ADME. The note with it: liver microsomes, 1 mg/mL liver microsome protein, 37° C., NA = essentially not metabolized, read-out: T1/2 in human liver microsome. The protocol:
(§1) The in vitro metabolic stability of the compounds disclosed herein was determined through incubation of liver microsomes of various species. […] At each time point, 100 μL of the reaction mixture was added into a centrifuge tube containing 400 μL of internal standard working solution (containing a 200 ng/mL solution of dexamethasone, diclofenac, tolbutamide and labetalol in acetonitrile) precooled at 0° C. so as to terminate the reaction, and the mixture was then centrifuged at 10,000 g for 10 min at 4° C. The supernatant was collected for LC-MS assay so as to obtain the values of in vitro metabolic half-life of the test compounds in liver microsomes of various species.
A general note: Microsomes from liver hold many membrane-bound enzymes, among them those of drug oxidation.

Data set [2] can be described thus: In vitro metabolic stability, rat liver microsome. It counts as in vitro ADME. The settings on record: liver microsomes, 1 mg/mL liver microsome protein, 37° C., NA = essentially not metabolized, read-out: T1/2 in rat liver microsome. The protocol: as §1
Data set [3] can be described thus: In vitro cytotoxicity assay, CCK-8 method. Format: cell-based. The note with it: human, HepG2 cells. The protocol:
In vitro cytotoxicity assay for the compounds disclosed herein was performed in HepG2 cells using the CCK-8 method. HepG2 cells (Beina Bio) in the logarithmic growth phase were collected, the concentration of cell suspension was adjusted, and then the cells were plated on a 96-well cell culture plate at 50,000 cells/well. The cells were then incubated overnight in a cell incubator of 5% […] at 37° C., and after 80-90% cell confluence was achieved, test compounds or vehicle (DMSO) at various concentration gradients were added after medium change. The plate was incubated in a cell incubator of 5% […] at 37° C. for 48 h. After the treatment, the medium in the plate was discarded. The plate was washed twice with PBS, added with CCK-8 working solution (Beyotime) at 100 μL per well, and then incubated at 37° C. for 1.5 h away from light. Absorbance at OD450nm was measured for each well on a microplate reader, and CC50 value of each compound was analyzed and calculated.
(Tetrazolium assays rely on reduction of a dye to a coloured formazan, in cell work by metabolically active cells.)

The nature of data set [4]: In vitro metabolic stability, guinea pig liver microsome. The note with it: liver microsomes, 1 mg/mL liver microsome protein, 37° C., NA = essentially not metabolized, read-out: T1/2 in guinea pig liver microsome. Format: in vitro ADME. The protocol:
The in vitro metabolic stability of the compounds disclosed herein was determined through incubation of liver microsomes of various species. A proper amount of test compound was added into a liver microsome reaction system (1 mg/mL liver microsome protein, 25 U/mL glucose-6 phosphate dehydrogenase, 1 mM NADP, 6 mM D-glucose 6-phosphate and 5 mM MgCl2), and then the mixture was incubated in a water bath kettle at 37° C. to start the reaction. At each time point, 100 μL of the reaction mixture was added into a centrifuge tube containing 400 μL of internal standard working solution (containing a 200 ng/mL solution of dexamethasone, diclofenac, tolbutamide and labetalol in acetonitrile) precooled at 0° C. so as to terminate the reaction, and the mixture was then centrifuged at 10,000 g for 10 min at 4° C. The supernatant was collected for LC-MS assay so as to obtain the values of in vitro metabolic half-life of the test compounds in liver microsomes of various species.

Data set [5] concerns the target hP2X2/3 (heterodimeric receptors formed by human purinergic P2X receptors subtype 2 and subtype 3) (Homo sapiens (Human), UniProt P56373+Q9UBL9). Kind of data set: FLIPR calcium assay, hP2X2/3 expressed in HEK293 cells (P2X2/3 receptor selectivity). Format: cell-based. The settings on record: for IC50: HEK293 cells expressing hP2X2/3, agonist BZ-ATP 5 μM, unit inferred.

The target of data set [6] is hP2X3 (human purinergic P2X receptor subtype 3) (Homo sapiens (Human), UniProt P56373). In words: FLIPR calcium assay, hP2X3 expressed in HEK293 cells. The settings on record: read-out: P2X3 IC50. It counts as cell-based.

Where two headings read alike, the source gives them in different places.

Sequence of hP2X3 (human purinergic P2X receptor subtype 3) (P56373 whole entry): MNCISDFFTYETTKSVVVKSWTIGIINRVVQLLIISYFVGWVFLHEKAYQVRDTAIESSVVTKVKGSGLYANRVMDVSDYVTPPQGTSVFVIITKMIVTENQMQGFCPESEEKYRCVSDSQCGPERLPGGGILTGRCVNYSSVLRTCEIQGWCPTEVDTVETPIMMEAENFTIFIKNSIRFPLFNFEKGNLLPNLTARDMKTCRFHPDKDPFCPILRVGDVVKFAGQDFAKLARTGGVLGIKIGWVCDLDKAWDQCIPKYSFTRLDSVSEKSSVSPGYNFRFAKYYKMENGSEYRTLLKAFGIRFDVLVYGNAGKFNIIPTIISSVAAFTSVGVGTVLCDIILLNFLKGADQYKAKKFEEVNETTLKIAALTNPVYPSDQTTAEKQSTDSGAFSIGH
Sequence of hP2X2/3 (heterodimeric receptors formed by human purinergic P2X receptors subtype 2 and subtype 3) (P56373 whole entry): as above
Sequence of hP2X2/3 (heterodimeric receptors formed by human purinergic P2X receptors subtype 2 and subtype 3) (Q9UBL9 whole entry): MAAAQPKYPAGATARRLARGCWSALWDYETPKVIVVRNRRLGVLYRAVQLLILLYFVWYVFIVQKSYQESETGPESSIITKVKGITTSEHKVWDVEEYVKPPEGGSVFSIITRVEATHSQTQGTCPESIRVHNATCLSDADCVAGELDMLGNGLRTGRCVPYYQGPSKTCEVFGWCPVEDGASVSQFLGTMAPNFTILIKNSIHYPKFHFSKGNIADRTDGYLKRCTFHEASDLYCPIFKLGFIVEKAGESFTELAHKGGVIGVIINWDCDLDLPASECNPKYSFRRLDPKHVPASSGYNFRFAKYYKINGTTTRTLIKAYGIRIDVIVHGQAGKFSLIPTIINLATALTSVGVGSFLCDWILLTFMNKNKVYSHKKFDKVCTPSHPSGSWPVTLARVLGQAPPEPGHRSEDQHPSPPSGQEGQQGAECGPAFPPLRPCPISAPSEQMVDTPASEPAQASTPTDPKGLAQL

A word on the CC50: it is the concentration that lowers cell viability or growth by half. High values mean lower toxicity to the cells, low ones greater toxicity to the cells. For the molecule `COC(=O)N1CCO[C@@H](Cc2c(-c3c(F)cc(-n4ccnc4)cc3F)nc3cc(C)ccn23)C1` [Compound 5, methyl (S)-2-((2-(2,6-difluoro-4-(1H-imidazol-1-yl)phenyl)-7-methylimidazo[1,2-a]pyridin-3-yl)methyl)morpholine-4-carboxylate], the half-life in data set [1] came out at 10.8 h; in data set [2], 0.622 h; in data set [4], 0.794 h. In data set [3], this molecule yielded a CC50 at 48 h of 72 µM.
Consider `COC(=O)N1CCO[C@@H](Cc2c(-c3c(F)cc(-c4ncco4)cc3F)nc3cc(C)ccn23)C1` [Compound 10, methyl (S)-2-((2-(2,6-difluoro-4-(oxazol-2-yl)phenyl)-7-methylimidazo[1,2-a]pyridin-3-yl)methyl)morpholine-4-carboxylate], for which the results for the half-life in data set [1], in data set [2] and in data set [4] were 3.71 h, 0.513 h and 0.225 h, respectively. For the same molecule, the half-maximal cytotoxic concentration (CC50) at 48 h in data set [3] was determined as 15.8 µM.
Regarding `COC(=O)N1CCO[C@@H](Cc2c(-c3c(F)cc(-c4ccco4)cc3F)nc3cc(C)ccn23)C1` [Compound 11, methyl (S)-2-((2-(2,6-difluoro-4-(furan-2-yl)phenyl)-7-methylimidazo[1,2-a]pyridin-3-yl)methyl)morpholine-4-carboxylate], the results for the half-life in data set [1], in data set [2] and in data set [4] were 2.52 h, 0.0942 h and 0.0712 h, respectively. In addition, the midpoint of cytotoxicity in data set [3], the CC50 at 48 h, lay at 79.4 µM.
`COC(=O)N1CCO[C@@H](Cc2c(-c3c(F)cc(-c4cccs4)cc3F)nc3cc(C)ccn23)C1` [Compound 12, methyl (S)-2-((2-(2,6-difluoro-4-(thiophen-2-yl)phenyl)-7-methylimidazo[1,2-a]pyridin-3-yl)methyl)morpholine-4-carboxylate]: the half-life in data set [1] turned out to be 1.53 h; in data set [2], 0.13 h; in data set [4], 0.126 h. In data set [3], this molecule displayed a CC50 at 48 h of 52.7 µM.
On to `COC(=O)N1CCO[C@@H](Cc2c(-c3c(F)cc(-c4cccn4C)cc3F)nc3cc(C)ccn23)C1` [Compound 13, methyl (S)-2-((2-(2,6-difluoro-4-(1-methyl-1H-pyrrol-2-yl)phenyl)-7-methylimidazo[1,2-a]pyridin-3-yl)methyl)morpholine-4-carboxylate], for which the results for the half-life in data set [1], in data set [2] and in data set [4] were 1.03 h, 0.0373 h and 0.0375 h, respectively. The molecule also gave a CC50 at 48 h in data set [3] of 66.5 µM.
The term IC50 denotes the point on the concentration scale where inhibition reaches its midpoint. In the case of `COC(=O)N1CCO[C@@H](Cc2c(-c3c(F)cc(NC(=O)CCC(=O)O)cc3F)nc3cc(C)ccn23)C1` [Compound 25, (S)-4-((3,5-difluoro-4-(3-((4-(methoxycarbonyl)morpholin-2-yl)methyl)-7-methylimidazo[1,2-a]pyridin-2-yl)-phenyl)-amino)-4-oxobutanoic acid], the values for the half-life in data set [1] and in data set [2] were 4.97 h and 3.8 h, respectively. In data set [5], the Folds of selectivity entry is given as “A (key: A: folds of selectivity >1000; B: 200< folds of selectivity ≤1000; C: folds of selectivity ≤200)”. Moreover, the IC50 was above 60 µM in data set [5] and below 0.01 µM in data set [6]. For the same molecule, in data set [3], the CC50 at 48 h was above 100 µM.
For `COC(=O)N1CCO[C@@H](Cc2c(-c3c(F)cc(N4C(=O)CCC4=O)cc3F)nc3cc(C)ccn23)C1` [Compound 26, methyl (S)-2-((2-(4-(2,5-dioxopyrrolidin-1-yl)-2,6-difluorophenyl)-7-methylimidazo[1,2-a]pyridin-3-yl)methyl)morpholine-4-carboxylate], the half-life amounted to 4.22 h in data set [1], 1.35 h in data set [2] and 2.13 h in data set [4]. The molecule further returned a CC50 at 48 h in data set [3] above 100 µM. For the same molecule, the IC50 in data set [6] (HEK293 cells expressing hP2X3, agonist BZ-ATP 2.5 μM, class symbols) was in the range of 0.05 to 0.2 µM.
As for `CC(=O)N1CCO[C@@H](Cc2c(-c3c(F)cc(S(N)(=O)=O)cc3F)nc3cc(C)ccn23)C1` [Compound 173, (S)-4-(3-((4-acetylmorpholin-2-yl)methyl)-7-methylimidazo[1,2-a]pyridin-2-yl)-3,5-difluorobenzenesulfonamide], the results for the half-life in data set [2] and in data set [4] were 1.69 h and 10.8 h, respectively. Further, the Folds of selectivity in data set [5] amounted to 18811. The 50% inhibitory concentration (IC50) turned out to be 33.9 µM in data set [5] and 0.0018 µM in data set [6]. This molecule also registered a 50% cytotoxic concentration (CC50) at 48 h in data set [3] above 200 µM.
As to `CC(=O)N1CCO[C@@H](Cc2c(-c3c(F)cc(S(N)(=O)=O)cc3F)nc3cc(Cl)ccn23)C1` [Compound 174, (S)-4-(3-((4-acetylmorpholin-2-yl)methyl)-7-chloroimidazo[1,2-a]pyridin-2-yl)-3,5-difluorobenzenesulfonamide], the results for the half-life in data set [2] and in data set [4] were 6.64 h and 18.5 h, respectively. In data set [3], the CC50 at 48 h was above 200 µM. In addition, in data set [6], the concentration for half-maximal inhibition (IC50) stood at 0.0016 µM.
For `COC(=O)N1CCO[C@@H](Cc2c(-c3c(F)cc(S(C)(=O)=O)cc3F)nc3cc(C)ccn23)C1` [Compound 175, methyl (S)-2-((2-(2,6-difluoro-4-(methylsulfonyl)phenyl)-7-methylimidazo[1,2-a]pyridin-3-yl)methyl)morpholine-4-carboxylate], the half-life in data set [1], in data set [2] and in data set [4] was above 0.5 h in each case. Moreover, in data set [6], the concentration for half-maximal inhibition (IC50) is above 10 µM.
Take `COC(=O)N1CCO[C@@H](Cc2c(-c3ccc(S(N)(=O)=O)cc3Cl)nc3cc(C)ccn23)C1` [Compound 176, methyl (S)-2-((2-(2-chloro-4-sulfamoylphenyl)-7-methylimidazo[1,2-a]pyridin-3-yl)methyl)morpholine-4-carboxylate]: the half-life in data set [1] was 3.93 h; in data set [2], 0.0602 h; in data set [4], 1.02 h. The same molecule showed a cytotoxic concentration (CC50) at 48 h in data set [3] above 200 µM. Moreover, the half-maximal inhibitory concentration (IC50) in data set [6] was 0.0075 µM.
Take `COC(=O)N1CCO[C@@H](Cc2c(-c3cc(F)c(S(N)(=O)=O)cc3Cl)nc3cc(Cl)ccn23)C1` [Compound 181, methyl (S)-2-((7-chloro-2-(2-chloro-5-fluoro-4-sulfamoylphenyl)imidazo[1,2-a]pyridin-3-yl)methyl)morpholine-4-carboxylate]: the values for the half-life in data set [1], in data set [2] and in data set [4] were 23.3 h, 3.13 h and 3.91 h, respectively. Besides, it took 138 µM to reach half-maximal cytotoxicity in data set [3] (CC50 at 48 h). The 50% inhibitory concentration (IC50) in data set [6] stood at 0.0018 µM.
The like results for `COC(=O)N1CCO[C@@H](Cc2c(-c3c(F)cc(S(N)(=O)=O)cc3F)nc3cc(C)c(F)cn23)C1` [Compound 182, methyl (S)-2-((2-(2,6-difluoro-4-sulfamoylphenyl)-6-fluoro-7-methylimidazo[1,2-a]pyridin-3-yl)methyl)morpholine-4-carboxylate] were, in that order, 3.62 h, 0.182 h, 1.02 h, above 200 µM and 0.0035 µM.
On to `COC(=O)N1CCO[C@@H](Cc2c(-c3ccc(S(N)(=O)=O)cc3C)nc3cc(C)ccn23)C1` [Compound 184, methyl (S)-2-((7-methyl-2-(2-methyl-4-sulfamoylphenyl)imidazo[1,2-a]pyridin-3-yl)methyl)morpholine-4-carboxylate], for which the half-life worked out at 406 h in data set [1], 0.0943 h in data set [2] and 2.89 h in data set [4]. The molecule further showed a 50% cytotoxic concentration (CC50) at 48 h in data set [3] above 200 µM. The IC50 in data set [6] stood at 0.0056 µM.
In the case of `COC(=O)N1CCO[C@@H](Cc2c(-c3ccc(S(N)(=O)=O)cc3C(F)(F)F)nc3cc(C)ccn23)C1` [Compound 189, methyl (S)-2-((7-methyl-2-(4-sulfamoyl-2-(trifluoromethyl)phenyl)imidazo[1,2-a]pyridin-3-yl)methyl)morpholine-4-carboxylate], the half-life in data set [1] came out at 2.41 h. The concentration for half-maximal inhibition (IC50) in data set [6] was 0.01 µM.
